Earlier results as cited in publication PMC6835763, “Influence of Short Cationic Lipopeptides with Fatty Acids of Different Chain Lengths on Bacterial Biofilms Formed on Polystyrene and Hydrogel Surfaces” (Pharmaceutics, 2019).

What was measured:
Details in all cases: cited from earlier work
EC biofilm = test system: EC biofilm
Source text: (§1) They were ineffective against PM, which was difficult to eradicate with peptides (and antibiotics) in previously performed studies. PM can cause infections of the urinary tract, skin, subcutaneous tissue, and wounds. PM is known as a biofilm former, and an evident increase of PM resistance to broad-spectrum fluoroquinolones and cephalosporins has been observed. In the previous study, mature PM b ...

PA biofilm = test system: PA biofilm
Source text: as §1

SA biofilms = test system: SA biofilms; parameters: method as in PMID 24779193
PM biofilm = test system: PM biofilm
Source text: as §1

Compound | activity against EC biofilms (EC biofilm) | activity against PA biofilm (PA biofilm) | susceptibility of SA biofilms (SA biofilms) | susceptibility of mature PM biofilms (PM biofilm) | concentration eradicating the PM biofilm (PM biofilm; mature PM biofilms)
O=C(N[C@H](CO)[C@H](O)c1ccc([N+](=O)[O-])cc1)C(Cl)Cl [chloramphenicol] | rather weak activity | weak antibiofilm agents | resistant | – | –
neomycin | rather weak activity | weak antibiofilm agents | resistant | resistant | –
omiganan | – | – | – | resistant | –
C16-RR-NH2 [Lipopeptide C16-RR-NH2] | – | – | – | resistant | –
C16-KK-NH2 [Lipopeptide C16-KK-NH2] | – | – | – | – | 512 µg/mL
